Results: ChEMBL document CHEMBL1127848, “Three-dimensional quantitative structure-activity relationship of human immunodeficiency virus (I) protease inhibitors. 2. Predictive power using limited exploration of alternate binding modes” (J Med Chem, 1994)

Biological target: Human immunodeficiency virus type 1 protease (Human immunodeficiency virus 1, UniProt Q72874)
Experiment: Inhibitory activity against HIV-1 Protease

Row | SMILES | IC50
1 | CC[C@H](C)[C@H](NC(=O)[C@H](C(C)C)[C@@H](O)[C@H](O)[C@H](CC1CCCCC1)NC(=O)c1ncccc1OCSc1ccccc1)C(=O)NCc1nc2ccccc2[nH]1 | 315 nM
2 | CC[C@H](C)[C@H](NC(=O)[C@H](C(C)C)[C@@H](O)[C@H](O)[C@H](CC1CCCCC1)NC(=O)c1ccccc1OCSc1ccccc1)C(=O)NCc1nc2ccccc2[nH]1 | 11.2 nM
3 | CC[C@H](C)[C@H](NC(=O)[C@H](C(C)C)C(O)[C@H](O)[C@H](CC1CCCCC1)NC(=O)c1ncccc1OCOc1ccccc1)C(=O)NCc1nc2ccccc2[nH]1 (stereo not given in full) | 540 nM
4 | CC[C@H](C)[C@H](NC(=O)[C@H](C(C)C)C(O)[C@H](O)[C@H](CC1CCCCC1)NC(=O)c1ccccc1OCOc1ccccc1)C(=O)NCc1nc2ccccc2[nH]1 (stereo not given in full) | 18 nM
5 | CC[C@H](C)[C@H](NC(=O)[C@H](C(C)C)[C@@H](O)[C@H](O)[C@H](CC1CCCCC1)NC(=O)c1cccc(C)c1OCOc1ccccc1)C(=O)NCc1nc2ccccc2[nH]1 | 108 nM
6 | CC[C@H](C)[C@H](NC(=O)[C@H](C(C)C)[C@@H](O)[C@H](O)[C@H](CC1CCCCC1)NC(=O)c1ccccc1)C(=O)NCc1nc2ccccc2[nH]1 | 80.9 nM
7 | CC[C@H](C)[C@H](NC(=O)[C@H](C(C)C)[C@@H](O)[C@H](O)[C@H](CC1CCCCC1)NC(=O)C1CCCCC1)C(=O)NCc1ccccn1 | 49.5 nM
8 | CC(C)(C)NC(=O)N(Cc1ccccc1)CC(O)[C@H](Cc1ccccc1)NC(=O)[C@H](CC(N)=O)NC(=O)OCc1ccccc1 (stereo not given in full) | 19 nM
9 | CCCCNC(=O)N(CC(C)C)CC(O)[C@H](Cc1ccccc1)NC(=O)[C@H](CC(N)=O)NC(=O)c1ccc2ccccc2n1 (stereo not given in full) | 126 nM
10 | CC(C)[C@@H](C(=O)N[C@H]1Cc2ccccc2[C@H]1O)[C@@H](O)[C@H](O)[C@H](CC1CCCCC1)NC(=O)c1ncccc1OCOc1ccccc1 | 540 nM
11 | CC(C)[C@@H](C(=O)N[C@H]1Cc2ccccc2[C@H]1O)[C@@H](O)[C@H](O)[C@H](CC1CCCCC1)NC(=O)c1ccccc1OCSc1ccccc1 | 450 nM
12 | CC(C)(C)NC(=O)N(CC(O)[C@H](Cc1ccccc1)NC(=O)[C@H](CC(N)=O)NC(=O)c1ccc2ccccc2n1)C1CCCCC1 (stereo not given in full) | 5 nM
13 | CC(C)CN(CC(O)[C@H](Cc1ccccc1)NC(=O)[C@H](CC(N)=O)NC(=O)c1ccc2ccccc2n1)C(=O)NC(C)(C)C (stereo not given in full) | 6.01 nM
14 | C[C@H](c1ccccc1)N(CC(O)[C@H](Cc1ccccc1)NC(=O)[C@H](CC(N)=O)NC(=O)OCc1ccccc1)C(=O)NC(C)(C)C (stereo not given in full) | 6500 nM
15 | CC(C)(C)NC(=O)N(Cc1ccncc1)CC(O)[C@H](Cc1ccccc1)NC(=O)[C@H](CC(N)=O)NC(=O)OCc1ccccc1 (stereo not given in full) | 105 nM
16 | CC(C)CCN(CC(O)[C@H](Cc1ccccc1)NC(=O)[C@H](CC(N)=O)NC(=O)OCc1ccccc1)C(=O)NC(C)(C)C (stereo not given in full) | 13 nM
17 | CC(C)[C@@H](C(=O)N[C@H]1Cc2ccccc2[C@H]1O)[C@@H](O)[C@H](O)[C@H](CC1CCCCC1)NC(=O)c1ncccc1OCSc1ccccc1 | 2400 nM
18 | CCNC(=O)N(CC(C)C)CC(O)[C@H](Cc1ccccc1)NC(=O)[C@H](CC(N)=O)NC(=O)OCc1ccccc1 (stereo not given in full) | 330 nM
19 | CCCCNC(=O)N(CC(C)C)CC(O)[C@H](Cc1ccccc1)NC(=O)[C@H](CC(N)=O)NC(=O)OCc1ccccc1 (stereo not given in full) | 942 nM
20 | CC(C)CCN(CC(O)[C@H](Cc1ccccc1)NC(=O)[C@H](CC(N)=O)NC(=O)c1ccc2ccccc2n1)C(=O)NC(C)(C)C (stereo not given in full) | 3 nM
21 | CC(C)(C)NC(=O)N(Cc1ccccc1)CC(O)[C@H](Cc1ccccc1)NC(=O)[C@H](CC(N)=O)NC(=O)c1ccc2ccccc2n1 (stereo not given in full) | 3 nM
22 | CC(C)(C)NC(=O)N(CC(O)[C@H](Cc1ccccc1)NC(=O)[C@H](CC(N)=O)NC(=O)OCc1ccccc1)C1CCCCC1 (stereo not given in full) | 29 nM
23 | CNC(=O)N(CC(C)C)CC(O)[C@H](Cc1ccccc1)NC(=O)[C@H](CC(N)=O)NC(=O)OCc1ccccc1 (stereo not given in full) | 1500 nM
24 | CC(c1ccccc1)N(CC(O)[C@H](Cc1ccccc1)NC(=O)[C@H](CC(N)=O)NC(=O)OCc1ccccc1)C(=O)NC(C)(C)C (stereo not given in full) | 5090 nM
25 | CC(C)CN(CC(O)[C@H](Cc1ccccc1)NC(=O)[C@H](CC(N)=O)NC(=O)OCc1ccccc1)C(=O)NC(C)C (stereo not given in full) | 260 nM
26 | CC(C)(C)NC(=O)N(Cc1ccncc1)CC(O)[C@H](Cc1ccccc1)NC(=O)[C@H](CC(N)=O)NC(=O)c1ccc2ccccc2n1 (stereo not given in full) | 19 nM
27 | CCCNC(=O)N(CC(C)C)CC(O)[C@H](Cc1ccccc1)NC(=O)[C@H](CC(N)=O)NC(=O)OCc1ccccc1 (stereo not given in full) | 543 nM
28 | CC(C)[C@@H](C(=O)N[C@H]1Cc2ccccc2[C@H]1O)[C@@H](O)[C@H](O)[C@H](CC1CCCCC1)NC(=O)c1ccccc1OCOc1ccccc1 | 540 nM
29 | CC(C)[C@@H](C(=O)N[C@H]1Cc2ccccc2[C@H]1O)[C@@H](O)[C@H](O)[C@H](CC1CCCCC1)NC(=O)c1ccccc1 | 36 nM
30 | CC(C)CN(CC(O)[C@H](Cc1ccccc1)NC(=O)[C@H](CC(N)=O)NC(=O)OCc1ccccc1)C(=O)NC(C)(C)C (stereo not given in full) | 35 nM
